One test concerns the target DAT (Homo sapiens, UniProt Q01959). The experiment in a line: ASP+ uptake assay on FLEXstation, DAT-transfected HEK-293 cells. On the set-up: expressed in transfected cells. As to conditions: FIG. 10B. The format is cell-based. As to the method:
Medium for the transfected lines was supplemented with G418 (250 μg/ml). Trypsin, glutamine, penicillin, streptomycin, G418, and phosphate-free DMEM were purchased from Life Technologies, Inc. or obtained from the Vanderbilt Media Core. For all transport assays, cells were plated on poly-D-lysine (0.1 mg/ml)-coated (0.1 mg/ml)-coated 96-well plates. HEK cells were plated at 12,500 cells per well in 96 well plates, HEK-DAT cells were plated at 15,000 cells per well, HEK-NET cells were plated at 20,000 per well, and HEK-SERT cells were plated at 20,000 per well in a volume of 200 uL. HEK, HEK-DAT, and HEK-SERT cells were grown for 48 hours and HEK-NET cells were grown for 72 hours to a confluency of ˜90%.
ASP^+ was obtained from Molecular Probes, Inc. and dissolved in KRH buffer to indicated concentrations. Trypan Blue was obtained from Sigma as a 0.4% solution and diluted to a final concentration of 30 uM in KRH buffer.
To limit the time delay between the addition of ASP^+ and the measurement of accumulation of ASP^+ during the kinetic assays, plates were divided in half and assayed one half at a time. At assay, the medium was removed from wells in the first 6 columns by aspiration, and the cells were incubated with Trypan Blue in KRH buffer for 20 minutes at 37° C.in room air. Then, medium was removed from the wells in the last 6 columns and replaced with Trypan Blue in KRH buffer.

A further test addresses NET (Homo sapiens, UniProt P23975). The test is described as follows: [3H]NE accumulation (radiolabeled transport assay) in hNET-transfected HEK-293 cells. It counts as cell-based. Set-up: expressed in transfected cells. The conditions noted are these: Cheng-Prusoff correction, non-specific by 10 μM desipramine, N=5, mean±S.E.M., read-out: Ki, inhibition of [3H]NE accumulation. The procedure:
FIG. 1. MPP^+ and ASP^+ inhibit NE accumulation. [^3H]NE accumulation was measured in the hNET-transfected HEK-293 cells in the presence of increasing concentrations of ASP^+ or MPP^+ and normalized to similar data in the absence of an inhibitor. […]. The data were fit to NE transport remaining by the equation y=100/(1+([I]/IC50)^n), where [I] is the concentration of ASP^+ or MPP^+ and Ki values were determined using Cheng-Prusoff correction for substrate concentration. […] Values are represented as means±S.E.M., N=5.
All accumulation studies were performed at room temperature (22° C.) unless otherwise indicated. HEK-hNET cells were plated on poly-L-lysine coated 24-well tissue culture plates at 10^5 cells per well three days prior to performing transport assays. The cells were at approximately 90% confluence on the third day. The medium was removed by aspiration. Cells were then pre-incubated for 10 min in Krebs-Ringer's-Hepes (KRH: in mM 130 NaCl, 1.3 KCl, 2.2 CaCl2, 1.2 MgSO4, 1.2 KH2PO4, 10 Hepes, and 1.8 g/L glucose, pH 7.4) medium with or without 10 μM desipramine. […]. Pargyline (10 μM) and ascorbic acid (10 μM) were added to prevent metabolism and oxidation of NE, respectively. The assay mixture was aspirated after 10 minutes and cells were washed three times with 4° C. […] Accumulated [^3H]NE was determined by liquid scintillation of 1% (w/v) sodium dodecylsulphate solubilized cells. […]

Sequence of DAT (Q01959 whole entry): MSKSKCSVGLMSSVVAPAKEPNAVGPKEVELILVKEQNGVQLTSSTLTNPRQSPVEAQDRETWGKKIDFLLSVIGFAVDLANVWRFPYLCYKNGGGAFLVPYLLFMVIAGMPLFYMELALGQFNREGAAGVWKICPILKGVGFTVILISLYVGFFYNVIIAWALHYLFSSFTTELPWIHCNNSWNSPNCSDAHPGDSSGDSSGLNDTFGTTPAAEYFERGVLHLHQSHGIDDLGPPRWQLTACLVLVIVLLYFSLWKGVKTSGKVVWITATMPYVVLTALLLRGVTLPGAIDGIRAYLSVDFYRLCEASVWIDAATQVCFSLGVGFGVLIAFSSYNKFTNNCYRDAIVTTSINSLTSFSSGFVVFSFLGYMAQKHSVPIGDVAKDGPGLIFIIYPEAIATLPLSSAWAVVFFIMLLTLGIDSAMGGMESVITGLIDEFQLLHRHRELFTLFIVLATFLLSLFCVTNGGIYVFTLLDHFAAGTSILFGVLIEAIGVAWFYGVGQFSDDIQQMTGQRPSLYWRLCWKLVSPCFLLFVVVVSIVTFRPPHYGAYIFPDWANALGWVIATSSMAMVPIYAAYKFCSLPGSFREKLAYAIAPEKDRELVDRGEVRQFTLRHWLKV
Sequence of NET (P23975 whole entry): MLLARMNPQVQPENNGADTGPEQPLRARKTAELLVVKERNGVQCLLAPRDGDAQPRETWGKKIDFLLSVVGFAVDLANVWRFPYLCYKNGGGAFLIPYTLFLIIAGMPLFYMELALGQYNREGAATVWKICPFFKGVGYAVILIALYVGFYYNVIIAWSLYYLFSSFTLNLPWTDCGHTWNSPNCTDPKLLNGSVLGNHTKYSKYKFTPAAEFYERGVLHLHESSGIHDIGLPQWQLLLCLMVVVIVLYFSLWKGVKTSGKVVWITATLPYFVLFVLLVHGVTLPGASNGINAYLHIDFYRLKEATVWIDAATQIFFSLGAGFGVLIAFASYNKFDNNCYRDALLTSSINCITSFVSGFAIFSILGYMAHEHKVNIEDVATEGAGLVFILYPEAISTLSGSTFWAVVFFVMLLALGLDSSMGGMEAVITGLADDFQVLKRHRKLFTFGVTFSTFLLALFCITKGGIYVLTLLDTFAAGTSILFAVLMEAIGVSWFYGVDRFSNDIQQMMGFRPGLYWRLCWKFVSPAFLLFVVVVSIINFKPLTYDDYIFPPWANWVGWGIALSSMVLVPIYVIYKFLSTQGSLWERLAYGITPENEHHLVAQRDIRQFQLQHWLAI

For orientation: Ki means the dissociation constant of the complex between target and ligand, obtained from inhibition or displacement. As to `CN(C)c1ccc(C=Cc2cc[n+](C)cc2)cc1` [ASP^+, 4-(4-dimethylaminostyrl)-N-methylpyridinium], the “concentration-response of ASP+ accumulation, DAT” value at DAT is “concentration-dependent accumulation”. Moreover, the Ki on NET is 780 ± 77 nM.

The record behind these values is US7318917B2, “Rapid assays for neurotransmitter transporters” (Vanderbilt University, priority 2002, dated 2008).
